# Test results as given in patent US20240270762A1, “PENICILLIN-BINDING PROTEIN INHIBITORS” (priority 2021, published 2024).
# How the values were obtained:
# A. baumannii PBP1a = biological target: T1, A. baumannii PBP1a (Acinetobacter baumannii, UniProt A0ABX6CK30); assay: Bocillin-FL competition binding via gel filtration, A. baumannii PBP1a; conditions: competition binding assay using Bocillin-FL via gel filtration; read-out: A. baumannii PBP1a Potency
# T1 sequence (A0ABX6CK30 1-851): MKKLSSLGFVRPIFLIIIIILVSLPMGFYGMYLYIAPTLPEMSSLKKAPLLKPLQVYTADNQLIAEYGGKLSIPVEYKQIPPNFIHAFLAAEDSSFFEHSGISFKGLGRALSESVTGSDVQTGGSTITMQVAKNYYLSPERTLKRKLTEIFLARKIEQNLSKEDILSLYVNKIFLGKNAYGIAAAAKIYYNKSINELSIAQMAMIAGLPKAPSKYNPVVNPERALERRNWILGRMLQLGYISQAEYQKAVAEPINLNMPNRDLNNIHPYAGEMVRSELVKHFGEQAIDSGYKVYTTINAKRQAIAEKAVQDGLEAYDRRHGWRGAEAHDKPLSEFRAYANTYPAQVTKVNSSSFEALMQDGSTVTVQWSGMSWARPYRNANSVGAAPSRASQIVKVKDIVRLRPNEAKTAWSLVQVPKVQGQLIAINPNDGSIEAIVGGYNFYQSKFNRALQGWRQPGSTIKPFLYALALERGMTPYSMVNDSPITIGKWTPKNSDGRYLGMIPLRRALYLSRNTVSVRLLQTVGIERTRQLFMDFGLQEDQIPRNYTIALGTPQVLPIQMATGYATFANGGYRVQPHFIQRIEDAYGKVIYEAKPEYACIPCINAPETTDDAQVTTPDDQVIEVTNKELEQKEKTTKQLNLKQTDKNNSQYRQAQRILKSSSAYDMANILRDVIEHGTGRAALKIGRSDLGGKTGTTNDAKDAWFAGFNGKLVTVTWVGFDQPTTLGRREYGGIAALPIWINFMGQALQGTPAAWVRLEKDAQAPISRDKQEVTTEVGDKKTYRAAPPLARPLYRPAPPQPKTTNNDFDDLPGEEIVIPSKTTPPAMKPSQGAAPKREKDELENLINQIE
# How it was run: (§1)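 Enzyme pre-incubated with increasing inhibitor concentrations, then Bocillin-FL added for 15 min further incubation. Bocillin-FL-bound PBP separated by gel filtration and fluorescence read. EC50 from fitting fraction PBP bound vs inhibitor concentration to a Hill-type equation (ymin, ymax, n).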
# A. baumannii PBP2 = A. baumannii PBP2 (Acinetobacter baumannii, UniProt D0C8Z9); assay: Bocillin-FL competition binding via gel filtration, A. baumannii PBP2
# Sequence of A. baumannii PBP2 (D0C8Z9 whole entry): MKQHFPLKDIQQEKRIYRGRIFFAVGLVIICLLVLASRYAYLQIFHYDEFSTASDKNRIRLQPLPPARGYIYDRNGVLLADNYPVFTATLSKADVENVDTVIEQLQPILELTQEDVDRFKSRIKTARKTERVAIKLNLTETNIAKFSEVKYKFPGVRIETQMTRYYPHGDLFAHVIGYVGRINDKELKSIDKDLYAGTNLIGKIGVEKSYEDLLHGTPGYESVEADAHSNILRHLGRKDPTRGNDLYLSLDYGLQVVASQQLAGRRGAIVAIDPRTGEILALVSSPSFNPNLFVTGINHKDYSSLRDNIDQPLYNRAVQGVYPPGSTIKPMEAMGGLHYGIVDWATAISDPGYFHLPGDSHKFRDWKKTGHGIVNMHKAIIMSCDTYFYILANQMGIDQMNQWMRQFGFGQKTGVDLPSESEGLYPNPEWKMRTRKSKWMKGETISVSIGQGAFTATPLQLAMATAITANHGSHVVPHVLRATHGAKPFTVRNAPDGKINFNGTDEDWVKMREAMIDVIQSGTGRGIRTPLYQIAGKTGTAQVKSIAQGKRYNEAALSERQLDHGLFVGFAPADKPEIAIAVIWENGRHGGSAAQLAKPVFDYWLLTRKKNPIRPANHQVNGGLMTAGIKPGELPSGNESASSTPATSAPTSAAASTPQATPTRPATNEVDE
# How it was run: as §1
# A. baumannii ATCC 17978 = assay: microbe, parasite or virus in culture; assay type: cell-based; conditions: Acinetobacter baumannii, ATCC17978, read-out: MIC, A. baumannii ATCC 17978
# A. baumannii ATCC 19606 = assay: microbe, parasite or virus in culture; assay type: cell-based; conditions: Acinetobacter baumannii, ATCC19606, read-out: MIC, A. baumannii ATCC 19606
# P. aeruginosa ATCC 35151 = assay: microbe, parasite or virus in culture; assay type: cell-based; conditions: Pseudomonas aeruginosa, ATCC35151, read-out: Minimum inhibitory concentration, P. aeruginosa ATCC 35151
# [1] = tested on: P. aeruginosa (ΔmexAB-oprM); assay: Broth microdilution MIC in iron-depleted CAMHB (IDM); assay type: cell-based; conditions: Pseudomonas aeruginosa; iron-depleted CAMHB (IDM); […]; read-out: Minimum inhibitory concentration, P. aeruginosa ΔmexAB-oprM
# P. aeruginosa CDC-0054 = assay: microbe, parasite or virus in culture; assay type: cell-based; conditions: Pseudomonas aeruginosa, CDC0054, read-out: Minimum inhibitory concentration, P. aeruginosa CDC-0054
# P. aeruginosa CDC-0090 = assay: microbe, parasite or virus in culture; assay type: cell-based; conditions: Pseudomonas aeruginosa, CDC0090, read-out: Minimum inhibitory concentration, P. aeruginosa CDC-0090
# P. aeruginosa CDC-0095 = assay: microbe, parasite or virus in culture; assay type: cell-based; conditions: Pseudomonas aeruginosa, CDC0095, read-out: Minimum inhibitory concentration, P. aeruginosa CDC-0095
# A. baumannii 1258916 = assay: microbe, parasite or virus in culture; assay type: cell-based, Acinetobacter baumannii; conditions: Acinetobacter baumannii, 1258916, read-out: MIC, A. baumannii 1258916
# A. baumannii CDC-0033 = assay: microbe, parasite or virus in culture; assay type: cell-based; conditions: Acinetobacter baumannii, CDC0033, read-out: MIC, A. baumannii CDC-0033
# A. baumannii CDC-0045 = assay: microbe, parasite or virus in culture; assay type: cell-based; conditions: Acinetobacter baumannii, CDC0045, read-out: MIC, A. baumannii CDC-0045
# [2] = tested on: B. thailandensis ATCC 700388; assay: microbe, parasite or virus in culture; assay type: cell-based; conditions: Burkholderia thailandensis, ATCC700388, read-out: Minimum inhibitory concentration (MIC), B. thailandensis ATCC 700388
# [3] = tested on: B. humptydooensis ATCC BAA-2767; assay: microbe, parasite or virus in culture; assay type: cell-based; conditions: Burkholderia humptydooensis, ATCCBAA2767, read-out: Minimum inhibitory concentration (MIC), B. humptydooensis ATCC BAA-2767
# P. aeruginosa CDC-0110 = assay: microbe, parasite or virus in culture; assay type: cell-based; conditions: Pseudomonas aeruginosa, CDC0110, read-out: Minimum inhibitory concentration, P. aeruginosa CDC-0110
Structure (SMILES),EC50 (A. baumannii PBP1a) [µM],EC50 (A. baumannii PBP2) [µM],MIC (A. baumannii ATCC 17978) [µg/mL],MIC (A. baumannii ATCC 19606) [µg/mL],MIC (P. aeruginosa ATCC 35151) [µg/mL],MIC [1] [µg/mL],MIC (P. aeruginosa CDC-0054) [µg/mL],MIC (P. aeruginosa CDC-0090) [µg/mL],MIC (P. aeruginosa CDC-0095) [µg/mL],MIC (A. baumannii 1258916) [µg/mL],MIC (A. baumannii CDC-0033) [µg/mL],MIC (A. baumannii CDC-0045) [µg/mL],MIC [2] [µg/mL],MIC [3] [µg/mL],MIC (P. aeruginosa CDC-0110) [µg/mL]
"O=C(O)c1c(F)ccc2c1OB(O)[C@@H](NC(=O)C(NC(=O)N1CCN(CC3CCN(C(=O)c4cccc(O)c4)CC3)C(=O)C1=O)c1cc(F)c(O)c(O)c1Cl)C2 (stereo partly drawn) [Example 475, (3R)-3-(2-(2-chloro-5-fluoro-3,4-dihydroxyphenyl)-2-(4-((1-(3-hydroxybenzoyl)piperidin-4-yl)methyl)-2,3-dioxopiperazine-1-carboxamido)acetamido)-7-fluoro-2-hydroxy-3,4-dihydro-2H-benzo[e][1,2]oxaborinine-8-carboxylic acid]",10 to 50,< 10,< 1,< 1,< 1,< 1,< 1,< 1,< 1,< 1,2 to 4,< 1,< 1,2 to 4,< 1
"O=C(O)c1c(F)ccc2c1OB(O)[C@@H](NC(=O)C(NC(=O)N1CCN(C3CCN(C(=O)Nc4cccc(O)c4F)CC3)C(=O)C1=O)c1cc(F)c(O)c(O)c1Cl)C2 (stereo partly drawn) [Example 478, (3R)-3-(2-(2-chloro-5-fluoro-3,4-dihydroxyphenyl)-2-(4-(1-((2-fluoro-3-hydroxyphenyl)carbamoyl)piperidin-4-yl)-2,3-dioxopiperazine-1-carboxamido)acetamido)-7-fluoro-2-hydroxy-3,4-dihydro-2H-benzo[e][1,2]oxaborinine-8-carboxylic acid]",10 to 50,10 to 50,< 1,< 1,< 1,< 1,2 to 4,2 to 4,2 to 4,< 1,8 to 16,< 1,2 to 4,8 to 16,2 to 4
"O=C(O)c1c(F)ccc2c1OB(O)[C@@H](NC(=O)[C@H](NC(=O)N1CCN(C3CCN(C(=O)Nc4ccc(O)cc4)CC3)C1=O)c1cc(F)c(O)c(O)c1Cl)C2 (single isomer, unassigned) [Example 468]",< 10,< 10,< 1,< 1,< 1,< 1,< 1,< 1,< 1,< 1,< 1,< 1,< 1,< 1,< 1
"O=C(O)c1c(F)ccc2c1OB(O)[C@@H](NC(=O)C(NC(=O)N1CCN(C3CCN(C(=O)c4ccc(O)cc4)CC3)C(=O)C1=O)c1cc(F)c(O)c(O)c1Cl)C2 (stereo partly drawn) [Example 427, (3R)-3-(2-(2-chloro-5-fluoro-3,4-dihydroxyphenyl)-2-(4-(1-(4-hydroxybenzoyl)piperidin-4-yl)-2,3-dioxopiperazine-1-carboxamido)acetamido)-7-fluoro-2-hydroxy-3,4-dihydro-2H-benzo[e][1,2]oxaborinine-8-carboxylic acid]",< 10,< 10,< 1,< 1,< 1,< 1,2 to 4,2 to 4,2 to 4,< 1,2 to 4,< 1,< 1,< 1,< 1
"O=C(O)c1c(F)ccc2c1OB(O)[C@@H](NC(=O)C(NC(=O)N1CCN(C3CCN(C(=O)c4ccc(O)cc4O)CC3)C(=O)C1=O)c1cc(F)c(O)c(O)c1Cl)C2 (stereo partly drawn) [Example 476, (3R)-3-(2-(2-chloro-5-fluoro-3,4-dihydroxyphenyl)-2-(4-(1-(2,4-dihydroxybenzoyl)piperidin-4-yl)-2,3-dioxopiperazine-1-carboxamido)acetamido)-7-fluoro-2-hydroxy-3,4-dihydro-2H-benzo[e][1,2]oxaborinine-8-carboxylic acid]",10 to 50,< 10,< 1,< 1,< 1,< 1,< 1,< 1,< 1,< 1,< 1,< 1,< 1,< 1,< 1
"O=C(O)c1c(F)ccc2c1OB(O)[C@@H](NC(=O)C(NC(=O)N1CCN(CC3CCN(C(=O)Nc4cccc(O)c4)CC3)C(=O)C1=O)c1cc(F)c(O)c(O)c1Cl)C2 (stereo partly drawn) [Example 477, (3R)-3-(2-(2-chloro-5-fluoro-3,4-dihydroxyphenyl)-2-(4-((1-((3-hydroxyphenyl)carbamoyl)piperidin-4-yl)methyl)-2,3-dioxopiperazine-1-carboxamido)acetamido)-7-fluoro-2-hydroxy-3,4-dihydro-2H-benzo[e][1,2]oxaborinine-8-carboxylic acid]",10 to 50,< 10,< 1,< 1,< 1,< 1,< 1,< 1,< 1,< 1,2 to 4,< 1,< 1,< 1,< 1
"O=C(O)c1c(F)ccc2c1OB(O)[C@@H](NC(=O)[C@@H](NC(=O)N1CCN(C3CCN(C(=O)Nc4ccc(O)cc4)CC3)C1=O)c1cc(F)c(O)c(O)c1Cl)C2 (single isomer, unassigned) [Example 467]",< 10,–,< 1,< 1,< 1,< 1,2 to 4,< 1,< 1,< 1,< 1,< 1,< 1,2 to 4,< 1
"O=C(O)c1c(F)ccc2c1OB(O)[C@@H](NC(=O)C(NC(=O)N1CCN(C3CCN(C(=O)Cc4cccc(O)c4)CC3)C(=O)C1=O)c1cc(F)c(O)c(O)c1Cl)C2 (stereo partly drawn) [Example 474, (3R)-3-(2-(2-chloro-5-fluoro-3,4-dihydroxyphenyl)-2-(4-(1-(2-(3-hydroxyphenyl)acetyl)piperidin-4-yl)-2,3-dioxopiperazine-1-carboxamido)acetamido)-7-fluoro-2-hydroxy-3,4-dihydro-2H-benzo[e][1,2]oxaborinine-8-carboxylic acid]",10 to 50,< 10,< 1,< 1,< 1,< 1,< 1,< 1,2 to 4,< 1,< 1,< 1,2 to 4,< 1,< 1
